This passage reports IC50 results from ChEMBL document CHEMBL1142587, “Rhizochalin A, a novel two-headed sphingolipid from the sponge Rhizochalina incrustata” (J Nat Prod, 2005).

The IC50 is the concentration that inhibits the measured activity by half. Low readings indicate greater potency in that assay, high ones weaker potency in that assay.

The test system of this test is Ehrlich. As to the kind of experiment: Cytotoxicity against mouse Ehrlich cells. It counts as functional, cell-based.

SMILES strings stand for the structures. ≈ marks a conversion by molar mass, not a printed value.

In the case of `C[C@@H](N)[C@H](O)CCCCCCCC(=O)CCCCCCCCCCCCCC[C@@H](O[C@@H]1O[C@H](CO)[C@H](O)[C@H](O)[C@H]1O)[C@@H](C)N` [RHIZOCHALIN], the half-maximal inhibitory concentration (IC50) was found to be 10 µg/mL (≈ 15.8 µM).
